Ki and IC50 data for 24 compounds are collected here from patent publication US10829481B2, “Benzimidazole derivatives as modulators of ROR-gamma” (Vitae Pharmaceuticals, LLC, priority 2016, dated 2020).

Assay [1] addresses recombinant RORγ Ligand Binding Domain (LBD) protein (Homo sapiens (Human), UniProt P51449). Description: Radio-Ligand RORγ Binding Assay (Assay 1). The settings on record: competition with 25-hydroxy [26,27-3H]-cholesterol, SPA. The gist of the method: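 His-GST-fused RORγ ligand-binding domain (24 nM solution) competed between compounds and tritiated 25-hydroxycholesterol (8.6 nM solution), read by SPA after brief rt incubations in pH 7.4 HEPES/glycerol/detergent buffer. Four-parameter curve fitting gave IC50 at inflection, converted to Ki using radioligand concentration and KD.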

In assay [2] the target is full-length RORγt in Jurkat cells (Homo sapiens (Human), UniProt P51449). Nature of the assay: RORγt 5×RORE Assay in Jurkat Cells (Assay 2). It counts as cell-based. As to conditions: 5×RORE Nanoluc luciferase reporter. For orientation: In a reporter assay the amount or activity of a reporter protein is the signal.
Sequence of full-length RORγt in Jurkat cells (P51449 other isoform, or with tags, fused parts or gaps): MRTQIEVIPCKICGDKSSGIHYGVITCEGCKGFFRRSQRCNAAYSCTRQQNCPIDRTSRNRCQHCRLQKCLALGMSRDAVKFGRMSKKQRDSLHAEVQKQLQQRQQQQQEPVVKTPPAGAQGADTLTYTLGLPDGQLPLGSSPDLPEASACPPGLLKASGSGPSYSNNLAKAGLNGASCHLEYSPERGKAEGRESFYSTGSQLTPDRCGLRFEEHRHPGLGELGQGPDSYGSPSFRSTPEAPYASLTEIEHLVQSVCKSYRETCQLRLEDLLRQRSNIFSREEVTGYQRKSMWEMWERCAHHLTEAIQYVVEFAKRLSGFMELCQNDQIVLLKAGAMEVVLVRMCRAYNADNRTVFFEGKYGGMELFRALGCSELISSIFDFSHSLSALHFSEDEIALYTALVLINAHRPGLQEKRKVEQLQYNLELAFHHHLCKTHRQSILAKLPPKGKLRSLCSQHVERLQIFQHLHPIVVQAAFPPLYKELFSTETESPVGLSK

Sequence of recombinant RORγ Ligand Binding Domain (LBD) protein (P51449 269-508): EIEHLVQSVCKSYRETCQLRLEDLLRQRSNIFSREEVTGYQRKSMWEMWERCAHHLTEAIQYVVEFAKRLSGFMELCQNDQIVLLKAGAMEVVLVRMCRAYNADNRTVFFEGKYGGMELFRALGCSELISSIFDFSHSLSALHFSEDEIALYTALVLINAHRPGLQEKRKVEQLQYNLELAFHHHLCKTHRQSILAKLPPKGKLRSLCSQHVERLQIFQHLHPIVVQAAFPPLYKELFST

For orientation: Ki means the dissociation constant of the complex between target and ligand, obtained from inhibition or displacement. By IC50 is commonly meant the point on the concentration scale where inhibition reaches its midpoint. Low values mean higher potency, high ones lower potency. Turning to `CCc1nc2cc(C(=O)NCc3ccc(S(=O)(=O)CC)cc3)ccc2n1Cc1cccc2c1OC(F)(F)O2` [I-29, 1-((2,2-difluorobenzo[d][1,3]dioxol-4-yl)methyl)-2-ethyl-N-(4-(ethylsulfonyl)benzyl)-1H-benzo[d]imidazole-5-carboxamide], the Ki in assay [1] is less than 100 nM. The IC50 in assay [2] was less than 100 nM.
On to `CCS(=O)(=O)c1ccc(CNC(=O)c2ccc3c(c2)nc(C(C)(C)C)n3Cc2cccc3c2OC(F)(F)O3)cc1` [I-30, 2-(tert-butyl)-1-((2,2-difluorobenzo[d][1,3]dioxol-4-yl)methyl)-N-(4-(ethylsulfonyl)benzyl)-1H-benzo[d]imidazole-5-carboxamide], for which, in assay [1], the Ki was less than 100 nM. The same compound came in with a half-inhibitory concentration (IC50) in assay [2] of less than 100 nM.
As for `CCS(=O)(=O)c1ccc(CNC(=O)c2ccc3c(c2)nc(C(C)C)n3Cc2cccc3c2OC(F)(F)O3)cc1` [I-31, 1-((2,2-difluorobenzo[d][1,3]dioxol-4-yl)methyl)-N-(4-(ethylsulfonyl)benzyl)-2-isopropyl-1H-benzo[d]imidazole-5-carboxamide], the Ki in assay [1] is less than 100 nM. For the same compound, in assay [2], the 50% inhibitory concentration (IC50) is less than 100 nM.
Consider `CCS(=O)(=O)c1ccc(CNC(=O)c2ccc3c(c2)nc(C)n3Cc2cccc3c2OC(F)(F)O3)cc1` [I-32, 1-((2,2-difluorobenzo[d][1,3]dioxol-4-yl)methyl)-N-(4-(ethylsulfonyl)benzyl)-2-methyl-1H-benzo[d]imidazole-5-carboxamide], for which the inhibition constant (Ki) in assay [1] is less than 100 nM. The IC50 in assay [2] was greater than 1000 nM.
On the same counts, the results for `CCS(=O)(=O)c1ccc(CNC(=O)c2ccc3c(c2)nc(CC(C)C)n3Cc2cccc3c2OC(F)(F)O3)cc1` [I-33, 1-((2,2-difluorobenzo[d][1,3]dioxol-4-yl)methyl)-N-(4-(ethylsulfonyl)benzyl)-2-isobutyl-1H-benzo[d]imidazole-5-carboxamide] are less than 100 nM and less than 100 nM.
The corresponding values for `CS(=O)(=O)c1ccc(CNC(=O)c2ccc3c(c2)nc(C2CC2)n3Cc2cccc3c2OC(F)(F)O3)cc1` [I-34, 2-cyclopropyl-1-((2,2-difluorobenzo[d][1,3]dioxol-4-yl)methyl)-N-(4-(methylsulfonyl)benzyl)-1H-benzo[d]imidazole-5-carboxamide] are less than 100 nM and less than 100 nM.
On the same counts, the results for `CNS(=O)(=O)c1ccc(CNC(=O)c2ccc3c(c2)nc(C2CC2)n3Cc2cccc3c2OC(F)(F)O3)cc1` [I-35, 2-cyclopropyl-1-((2,2-difluorobenzo[d][1,3]dioxol-4-yl)methyl)-N-(4-(N-methylsulfamoyl)benzyl)-1H-benzo[d]imidazole-5-carboxamide] are less than 100 nM and less than 100 nM.
Take `CCS(=O)(=O)c1ccc(CNC(=O)c2ccc3c(c2)nc(C2CCC2)n3Cc2cccc3c2OC(F)(F)O3)cc1` [I-36, 2-cyclobutyl-1-((2,2-difluorobenzo[d][1,3]dioxol-4-yl)methyl)-N-(4-(ethylsulfonyl)benzyl)-1H-benzo[d]imidazole-5-carboxamide]: in assay [1], the inhibitory constant (Ki) was less than 100 nM. The concentration for half-maximal inhibition (IC50) in assay [2] is less than 100 nM.
For `CCS(=O)(=O)c1ccc(CNC(=O)c2ccc3c(c2)nc(C(F)F)n3Cc2cccc3c2OC(F)(F)O3)cc1` [I-37, 1-((2,2-difluorobenzo[d][1,3]dioxol-4-yl)methyl)-2-(difluoromethyl)-N-(4-(ethylsulfonyl)benzyl)-1H-benzo[d]imidazole-5-carboxamide], in assay [1], the inhibition constant (Ki) was less than 100 nM. Moreover, the IC50 in assay [2] was less than 100 nM.
For the compound `CCS(=O)(=O)c1ccc(CNC(=O)c2ccc3c(c2)nc(C(C)(F)F)n3Cc2cccc3c2OC(F)(F)O3)cc1` [I-38, 1-((2,2-difluorobenzo[d][1,3]dioxol-4-yl)methyl)-2-(1,1-difluoroethyl)-N-(4-(ethylsulfonyl)benzyl)-1H-benzo[d]imidazole-5-carboxamide], the inhibitory constant (Ki) in assay [1] is less than 100 nM. The compound further had a half-inhibitory concentration (IC50) in assay [2] of less than 100 nM.
As to `CCS(=O)(=O)c1ccc(CNC(=O)c2ccc3c(c2)nc([C@H]2CCCO2)n3Cc2cccc3c2OC(F)(F)O3)cc1` [I-39.1, (R)-1-((2,2-difluorobenzo[d][1,3]dioxol-4-yl)methyl)-N-(4-(ethylsulfonyl)benzyl)-2-(tetrahydrofuran-2-yl)-1H-benzo[d]imidazole-5-carboxamide], in assay [1], the Ki was less than 100 nM. Also, the IC50 in assay [2] was less than 100 nM.
For `CCS(=O)(=O)c1ccc(CNC(=O)c2ccc3c(c2)nc([C@@H]2CCCO2)n3Cc2cccc3c2OC(F)(F)O3)cc1` [I-39.2, (S)-1-((2,2-difluorobenzo[d][1,3]dioxol-4-yl)methyl)-N-(4-(ethylsulfonyl)benzyl)-2-(tetrahydrofuran-2-yl)-1H-benzo[d]imidazole-5-carboxamide], the Ki in assay [1] was less than 100 nM. The same compound came in with a half-maximal inhibitory concentration (IC50) in assay [2] of less than 100 nM.
In the case of `CS(=O)(=O)c1ccc(CNC(=O)c2ccc3c(c2)nc(C2(F)CC2)n3Cc2cccc3c2OC(F)(F)O3)cc1` [I-40, 1-((2,2-difluorobenzo[d][1,3]dioxol-4-yl)methyl)-2-(1-fluorocyclopropyl)-N-(4-(methylsulfonyl)benzyl)-1H-benzo[d]imidazole-5-carboxamide], in assay [1], the inhibition constant Ki was less than 100 nM. In assay [2], this compound showed an IC50 of less than 100 nM.
Turning to `O=C(NCc1ccc(S(=O)(=O)CCO)cc1)c1ccc2c(c1)nc(C1(F)CC1)n2Cc1cccc2c1OC(F)(F)O2` [I-41, 1-((2,2-difluorobenzo[d][1,3]dioxol-4-yl)methyl)-2-(1-fluorocyclopropyl)-N-(4-((2-hydroxyethyl)sulfonyl)benzyl)-1H-benzo[d]imidazole-5-carboxamide], the Ki in assay [1] is less than 100 nM. For the same compound, the IC50 in assay [2] is less than 100 nM.
Regarding `CNS(=O)(=O)c1ccc(CNC(=O)c2ccc3c(c2)nc(C2(F)CC2)n3Cc2cccc3c2OC(F)(F)O3)cc1` [I-42, 1-((2,2-difluorobenzo[d][1,3]dioxol-4-yl)methyl)-2-(1-fluorocyclopropyl)-N-(4-(N-methylsulfamoyl)benzyl)-1H-benzo[d]imidazole-5-carboxamide], the inhibitory constant (Ki) in assay [1] is less than 100 nM. This compound displayed a half-inhibitory concentration (IC50) in assay [2] of less than 100 nM.
Turning to `CCS(=O)(=O)c1ccc(CNC(=O)c2ccc3c(c2)nc(C2(F)CCC2)n3Cc2cccc3c2OC(F)(F)O3)cc1` [I-43, 1-((2,2-difluorobenzo[d][1,3]dioxol-4-yl)methyl)-N-(4-(ethylsulfonyl)benzyl)-2-(1-fluorocyclobutyl)-1H-benzo[d]imidazole-5-carboxamide], the inhibitory constant (Ki) in assay [1] was less than 100 nM. The compound further returned a half-inhibitory concentration (IC50) in assay [2] of less than 100 nM.
`O=C(NCc1ccc(S(=O)(=O)CCO)cc1)c1ccc2c(c1)nc(C(F)(F)F)n2Cc1cccc2c1OC(F)(F)O2` [I-45, 1-((2,2-difluorobenzo[d][1,3]dioxol-4-yl)methyl)-N-(4-((2-hydroxyethyl)sulfonyl)benzyl)-2-(trifluoromethyl)-1H-benzo[d]imidazole-5-carboxamide]: the Ki in assay [1] is less than 100 nM. In assay [2], this compound registered a 50% inhibitory concentration (IC50) of less than 100 nM.
As to `CNS(=O)(=O)c1ccc(CNC(=O)c2ccc3c(c2)nc(C(F)(F)F)n3Cc2cccc3c2OC(F)(F)O3)cc1` [I-46, 1-((2,2-difluorobenzo[d][1,3]dioxol-4-yl)methyl)-N-(4-(N-methylsulfamoyl)benzyl)-2-(trifluoromethyl)-1H-benzo[d]imidazole-5-carboxamide], in assay [1], the inhibition constant (Ki) is less than 100 nM. The compound also yielded a half-inhibitory concentration (IC50) in assay [2] of less than 100 nM.
For `O=C(NCc1ccc(S(=O)(=O)CCO)cc1)c1ccc2c(c1)nc(C1CC1)n2Cc1cccc2c1OC(F)(F)O2` [I-47, 2-cyclopropyl-1-((2,2-difluorobenzo[d][1,3]dioxol-4-yl)methyl)-N-(4-((2-hydroxyethyl)sulfonyl)benzyl)-1H-benzo[d]imidazole-5-carboxamide], in assay [1], the Ki was less than 100 nM. For the same compound, the IC50 in assay [2] is less than 100 nM.
Turning to `CS(=O)(=O)c1ccc(CNC(=O)c2ccc3c(c2)nc(C(F)(F)F)n3Cc2cccc3c2OC(F)(F)O3)cc1` [I-48, 1-((2,2-difluorobenzo[d][1,3]dioxol-4-yl)methyl)-N-(4-(methylsulfonyl)benzyl)-2-(trifluoromethyl)-1H-benzo[d]imidazole-5-carboxamide], the Ki in assay [1] is less than 100 nM. The compound also yielded an IC50 in assay [2] of less than 100 nM.
As for `CS(=O)(=O)c1ccc(CNC(=O)c2ccc3c(c2)nc(C(F)F)n3Cc2cccc3c2OC(F)(F)O3)cc1` [I-50, 1-((2,2-difluorobenzo[d][1,3]dioxol-4-yl)methyl)-2-(difluoromethyl)-N-(4-(methylsulfonyl)benzyl)-1H-benzo[d]imidazole-5-carboxamide], the Ki in assay [1] was less than 100 nM. Besides, in assay [2], the IC50 is less than 100 nM.
For the compound `NS(=O)(=O)c1ccc(CNC(=O)c2ccc3c(c2)nc(C(F)(F)F)n3Cc2cccc3c2OC(F)(F)O3)cc1` [I-51, 1-((2,2-difluorobenzo[d][1,3]dioxol-4-yl)methyl)-N-(4-sulfamoylbenzyl)-2-(trifluoromethyl)-1H-benzo[d]imidazole-5-carboxamide], the inhibitory constant (Ki) in assay [1] was less than 100 nM. In addition, in assay [2], the IC50 is 100 to 1000 nM.
On the same counts, the results for `CCCS(=O)(=O)c1ccc(CNC(=O)c2ccc3c(c2)nc(C(F)(F)F)n3Cc2cccc3c2OC(F)(F)O3)cc1` [I-52, 1-((2,2-difluorobenzo[d][1,3]dioxol-4-yl)methyl)-N-(4-(propylsulfonyl)benzyl)-2-(trifluoromethyl)-1H-benzo[d]imidazole-5-carboxamide] are less than 100 nM and less than 100 nM.
On the same counts, the results for `COC(=O)CS(=O)(=O)c1ccc(CNC(=O)c2ccc3c(c2)nc(C(F)(F)F)n3Cc2cccc3c2OC(F)(F)O3)cc1` [I-53, methyl 2-((4-((1-((2,2-difluorobenzo[d][1,3]dioxol-4-yl)methyl)-2-(trifluoromethyl)-1H-benzo[d]imidazole-5-carboxamido)methyl)phenyl)sulfonyl)acetate] are less than 100 nM and 100 to 1000 nM.
